Test results as given in patent US9879029B2, “ERK inhibitors” (Eli Lilly and Company, priority 2014, dated 2018).

System: RSK1 phosphorylation in HCT116 tumor xenograft
Experiment: In vivo target inhibition (IVTI) assay (pRSK1 ELISA), HCT116 xenograft
Design: species or system female athymic nude mice
Details: oral
Procedure: The purpose of this assay is to measure the ability of a test compound to inhibit ERK1/2 substrate phosphorylation in an animal model. Implant female athymic nude mice (22-25 g) from Harlan Laboratories with 5×10e^6 HCT116 colorectal cancer cells (ATCC, # CCL-247) subcutaneously in the right flank region in 200 μL of 1:1 Hank's Balanced Salt Solution (HBSS)+Matrigel solution. Measure tumor growth and body weight twice per week beginning the seventh day after the implantation. When tumor sizes reach 300-500 mm^3, randomize animals and group into groups of five animals. […]
Pulverize tumors in liquid nitrogen and lyse in 1× lysis buffer (MSD, #R60TX-3) containing 1× halt protease & phosphatase inhibitor cocktail (Thermo Scientific, #0861281), 1 mM phenylmethanesulfonyl fluoride (PMSF) (Sigma, #93482-50ML-F) and 1 μM sodium metavanadate (Sigma, #590088) using Matrix D beads (MP Biomedical, #6913-500) in a FastPrep-24™ Cell Disrupter machine (MP Biomedical) in a cold room (4° C.). […] Cool plate to room temperature and measure the absorbance at or near 562 nm on a plate reader (Envision plate reader from Perkin Elmer). Subtract the average 562 nm absorbance measurement of the blank standard replicates from the 562 nm measurements of all other individual standard and unknown (cell or tumor lysate) sample replicates. […]

COCCN1C(=O)c2cc(-c3ccnc(Nc4ccnn4C)c3)sc2C1(C)C [Example 1, 5-(2-Methoxyethyl)-6,6-dimethyl-2-{2-[(1-methyl-1H-pyrazol-5-yl)amino]pyridin-4-yl}-5,6-dihydro-4H-thieno[2,3-c]pyrrol-4-one]
TED50 (pRSK1 inhibition in tumor): 12 mg/kg
